The assay has as its system parasites (ring stage, in human red blood cell culture). Description: Parasite LDH growth assay (antiparasite potency, Parasite Assay). It counts as cell-based, Plasmodium falciparum. Conditions: Plasmodium falciparum, Erythrocyte, 72 h, 0.7% rings, 2% haematocrit, 72 hours at 37° C., LDH readout of parasite growth. The procedure, abridged:
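Ring-stage parasites at 0.7% parasitemia and 2% haematocrit, in RPMI-Hepes/bicarbonate with 5% heat-inactivated human serum and 0.5% albumax, were added to compound-containing medium. Cultures grew 72 h at 37 °C in gassed humidified boxes. Plates were then frozen overnight at −80 °C, thawed 4 h, and growth was measured by LDH assay.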

`CCC1(CC)CC(=O)N(C2CC(C)Oc3ccc(C(=O)N[C@@H]4c5ccccc5OC[C@@]4(C)O)cc32)C(=N)N1` (stereo partly drawn) [Example 209, 4-(4,4-diethyl-2-imino-6-oxo-hexahydropyrimidin-1-yl)-N-[(3S,4R)-3-hydroxy-3-methyl-chroman-4-yl]-2-methyl-chromane-6-carboxamide]: a half-maximal effect (EC50) was put at 7.9 nM.

`CC[C@]1(C)CC(=O)N(C2CC(C)Oc3ccc(C(=O)N[C@@H]4c5ccccc5OC(C)(C)[C@H]4O)cc32)C(=N)N1` (stereo partly drawn) [Example 210, 4-[(4R)-4-ethyl-2-imino-4-methyl-6-oxo-hexahydropyrimidin-1-yl]-N-[(3S,4R)-3-hydroxy-2,2-dimethyl-chroman-4-yl]-2-methyl-chromane-6-carboxamide] registered an EC50 of 195 nM.

As for `CCC1(CC)CC(=O)N([C@@H]2CCCOc3ccc(C(=O)N[C@@H]4c5ccccc5OC[C@@]4(C)O)cc32)C(=N)N1` [Example 211, (5R)-5-(4,4-diethyl-2-imino-6-oxo-hexahydropyrimidin-1-yl)-N-[(3S,4R)-3-hydroxy-3-methyl-chroman-4-yl]-2,3,4,5-tetrahydro-1-benzoxepine-7-carboxamide], the EC50 came to 8.9 nM.

With `CCC1(CC)CC(=O)N(C2c3cc(C(=O)N[C@@H]4c5ccccc5C[C@@]4(C)O)ccc3OCC2OC)C(=N)N1` (stereo partly drawn) [Example 212, 4-(4,4-diethyl-2-imino-6-oxo-hexahydropyrimidin-1-yl)-N-[(1R,2R)-2-hydroxy-2-methyl-indan-1-yl]-3-methoxy-chromane-6-carboxamide], the EC50 is 6.5 nM.

In the case of `CCC1(CC)CC(=O)N(C2c3cc(C(=O)N[C@@H]4c5ccccc5C[C@]4(C)O)ccc3OCC2OC)C(=N)N1` (stereo partly drawn) [Example 213, 4-(4,4-diethyl-2-imino-6-oxo-hexahydropyrimidin-1-yl)-N-[(1R,2S)-2-hydroxy-2-methyl-indan-1-yl]-3-methoxy-chromane-6-carboxamide], the EC50 turned out to be 9 nM.

On to `CCC1(CC)CC(=O)N([C@H]2c3cc(C(=O)N[C@@H]4c5ccccc5C[C@H]4O)ccc3OC[C@H]2COC)C(=N)N1` [Example 215, (3R,4R)-4-(4,4-diethyl-2-imino-6-oxo-hexahydropyrimidin-1-yl)-N-[(1R,2R)-2-hydroxyindan-1-yl]-3-(methoxymethyl)chromane-6-carboxamide], for which the EC50 was 4.2 nM.

Turning to `CCC1(CC)CC(=O)N([C@H]2c3cc(C(=O)N[C@@H]4c5ccccc5C[C@H]4O)ccc3OC[C@@H]2COC)C(=N)N1` [Example 216, (3S,4R)-4-(4,4-diethyl-2-imino-6-oxo-hexahydropyrimidin-1-yl)-N-[(1R,2R)-2-hydroxyindan-1-yl]-3-(methoxymethyl)chromane-6-carboxamide], the midpoint of the response, the EC50, lay at 2.7 nM.

On to `COC1COc2ccc(C(=O)N[C@@H]3c4ccccc4OC(C)(C)[C@H]3O)cc2C1N1C(=N)NC(C)(C)CC1=O` (stereo partly drawn) [Example 217, N-[(3S,4R)-3-hydroxy-2,2-dimethyl-chroman-4-yl]-4-(2-imino-4,4-dimethyl-6-oxo-hexahydropyrimidin-1-yl)-3-methoxy-chromane-6-carboxamide], for which the EC50 is 4.9 nM.

With `CC[C@]1(C)CC(=O)N(C2c3cc(C(=O)N[C@@H]4c5ccccc5OC[C@@]4(C)O)ccc3OCC2OC)C(=N)N1` (stereo partly drawn) [Example 218, 4-[(4R)-4-ethyl-2-imino-4-methyl-6-oxo-hexahydropyrimidin-1-yl]-N-[(3S,4R)-3-hydroxy-3-methyl-chroman-4-yl]-3-methoxy-chromane-6-carboxamide], a half-maximal effect (EC50) was put at 64 nM.

`COCC1(C)Oc2ccc(C(=O)N[C@@H]3c4ccccc4OC[C@@]3(C)O)cc2C1N1C(=N)NC(C)(C)CC1=O` (stereo partly drawn) [Example 219, N-[(3S,4R)-3-hydroxy-3-methyl-chroman-4-yl]-3-(2-imino-4,4-dimethyl-6-oxo-hexahydropyrimidin-1-yl)-2-(methoxymethyl)-2-methyl-3H-benzofuran-5-carboxamide] gave an EC50 of 208 nM.

The EC50 is the concentration needed to bring the measured effect to its halfway point.

For the origin of these results see patent publication US12350270B2, “Antimalarial agents” (Merck Sharp & Dohme LLC, priority 2019, dated 2025).
